Measurements published in patent publication US20100261726A1, “TREATMENT OF AML” (priority 2002, published 2010).
Read-outs that look alike come from different tables or passages of the source.

Columns and labels:
[1] = system: patient leukemic cells (AML samples); test: cells; assay type: cell-based
Method: (§1) After informed consent bone marrow and peripheral blood cells were obtained at diagnosis from 6 pediatric AML patients aged 0-18 years. The diagnosis is assessed by cytomorphology using FAB classification and immunophenotyping (Bennett J M et al., Br. J. Haematol. 33: 451-458, 1976). Mononuclear cells (MNC) are separated by Lymphoprep (Nycomed, Oslo, Norway) density gradients and cryopreserved in liquid nitrogen until use. Cryopreserved AML cells are thawed rapidly at 37° C., diluted in a 5× volume of normal calf serum (NCS) as described by Dokter W H et al., Leukemia 9: 425-432, 1995. The remaining pellet is T-cell depleted by sheep red blood cells and separated over lymphoprep density gradient. Remaining blast cell population contained more than 95% AML cells, hereafter referred to as AML cells and cultured in RPMI-1640 supplemented with penicillin/streptomycin and 10% fetal bovine serum.
For the leukemic samples (10,000 cells/well) of the patients a 3-day cell culture is used. […] The optical density (OD) is linearly related to the number of viable cells. Control wells contain leukemic cells only with culture media without drugs, and blank wells contain culture media only. […] The LC50 value (drug concentration needed to kill 50% of the leukemic cells) is used to compare the differences between patients and/or various drug combinations. LC50 value equation: ([% leukemic cell survival >50%]−50)/([% leukemic cell survival >50%]−[% leukemic cell survival <50%])×(drug concentration when leukemic cell survival <50%−drug concentration when leukemic cell survival >50%)+(drug concentration when leukemic cell survival >50%).

TF-1 cells [2] = test: Survival assay, viable cells counted by trypan blue exclusion after 24 hours; assay type: cell-based
Method: The cell lines HL-60, TF-1, K562 and U937 are obtained from American Type Culture Collection (Manassas, Va., USA) and cultured in RPMI-1640 (Roswell Park Memorial Institute) supplemented with penicillin/streptomycin and 10% fetal bovine serum (FBS, Hyclone, Logan, Utah, USA) for U937, K562 and HL-60 cells and supplemented with GM-CSF 1 ng/mL for TF-1 cells.
(§2) Before incubation with recombinant (rec) VEGF165 (Sigma, St. Louis, […].) and/or PTK787, AML cells and/or cell lines are serum starved for 4 hours in serum free medium (X-vivo 10, Biowhitaker, Brussels, Belgium). For proliferation experiments, cells are cultured in six-well plates (Corning-Costar Corp., Cambridge, Mass., USA), at a cell density of 1×10^5 cells per well in serum free medium (X-vivo-10) for 24 hours. Cells are treated (rec VEGF165 5-100 ng/mL) or untreated (media alone) and are cultured in the presence or absence of PTK787 (5-100 nM). After 24 hours viable cells (determined by trypan blue exclusion) are counted in triplicate using a hemocytometer. Each experiment is done in triplicate, and experiments with leukemic cell lines are repeated three times.

[3] = system: primary AML cells of pediatric AML patients; test: Patient leukemic cell survival counted by trypan blue exclusion; assay type: cell-based, human
Method: as §1, §2
Correlations are calculated using the Spearman rank correlation coefficient (rho). A paired sample non-parametric test (Wilcoxon Signed Ranks test) is used to analyze the paired viable cells (with or without VEGF, as well as with or without PTK787). A significant difference is defined as a P-value <0.05.

TF-1 cells [4] = test: Total cell kill assay (MTT), leukemic cell line; assay type: cell-based; settings: PTK787 in different concentrations
Method: (§3) In vitro cellular drug resistance of leukemic HL-60 and TF-1 cells (10,000 cells/well) are assessed using a 2-day cell culture assay based on the principle that only viable cells are able to reduce 3-(4,5-dimethyl-2-thiazolyl)-2,5-diphenyl-tetrazolium bromide (MTT) (5 mg/mL in PBS added to each well for 4 hours) to a colored formazan product, measured spectrophotometrically at 520 nm. For the leukemic samples (10,000 cells/well) of the patients a 3-day cell culture is used. […] The optical density (OD) is linearly related to the number of viable cells. Control wells contain leukemic cells only with culture media without drugs, and blank wells contain culture media only. Percentage of cell survival is calculated at each drug concentration by the equation (mean OD treated wells/mean OD control wells)×100% after correction for the background found in the blank wells. The results are considered evaluable when the control wells still contain 70% or more leukemic cells (determined by MGG staining) after a 3-day culture period. The mean OD of the control wells after correction for the background at 3 days always exceeds 0.1 arbitrary units for valid results. The LC50 value (drug concentration needed to kill 50% of the leukemic cells) is used to compare the differences between patients and/or various drug combinations. […]

HL-60 cells = test: Total cell kill assay (MTT), leukemic cell line; assay type: cell-based; settings: PTK787 in different concentrations
Method: as §3

TF-1 cells [5] = test: Apoptosis shown by PI DNA labeling (cell cycle analysis); assay type: cell-based; settings: dose-dependent, overnight culture, 5% in control wells
Method: Cells are washed with PBS and resuspended in 75% ethanol in PBS and kept at 4° C. for at least 30 minutes. Prior to analysis, cells are washed with PBS, resuspended and incubated for 30 minutes in 1 mg/mL RNase A in PBS and thereafter incubated in staining solution containing 0.05 mg/mL propidium iodide (Sigma), 1 mM EDTA and 0.1% Triton-X-100. The suspension is then passed through a nylon mesh filter and analyzed on Becton Dickinson FACScan.

K562 cells = test: Total cell kill assay (MTT), leukemic cell line; assay type: cell-based; settings: PTK787 in different concentrations
[6] = system: A431 epidermoid, Ls174T colon, HT-29 colon, PC-3 prostate carcinoma; settings: HT-29, PC-3 carcinomas; cited from earlier work
[7] = Homo sapiens, read-out: LC50 value, Patient No. 1, drug alone
[8] = Homo sapiens, read-out: LC50 value, Patient No. 1, with PTK787 5 nM
[9] = Homo sapiens, read-out: LC50 value, Patient No. 1, with PTK787 10 nM
[10] = Homo sapiens, read-out: LC50 value, Patient No. 1, with PTK787 25 nM
[11] = Homo sapiens, read-out: LC50 value, Patient No. 2, drug alone
[12] = Homo sapiens, read-out: LC50 value, Patient No. 2, with PTK787 5 nM
[13] = Homo sapiens, read-out: LC50 value, Patient No. 3, drug alone
[14] = Homo sapiens, read-out: LC50 value, Patient No. 3, with PTK787 5 nM
[15] = Homo sapiens, read-out: LC50 value, Patient No. 4, drug alone
[16] = Homo sapiens, read-out: LC50 value, Patient No. 4, with PTK787 5 nM
[17] = Homo sapiens, read-out: LC50 value, Patient No. 5, drug alone
[18] = Homo sapiens, read-out: LC50 value, Patient No. 5, with PTK787 5 nM
[19] = PTK787 (25 nM) plus exogenous VEGF165

Row | SMILES | CC50 [1, 7] | CC50 [1, 8] | CC50 [1, 9] | CC50 [1, 10] | CC50 [1, 11] | CC50 [1, 12] | CC50 [1, 13] | CC50 [1, 14] | CC50 [1, 15] | CC50 [1, 16] | CC50 [1, 17] | CC50 [1, 18] | other results
1 | Nc1ccn([C@@H]2O[C@H](CO)[C@@H](O)[C@@H]2O)c(=O)n1 [Cytarabine, cytarabine] | 400 µg/mL | 260 µg/mL | 250 µg/mL | 35 µg/mL | 5 µg/mL | 0.6 µg/mL | 4.7 µg/mL | 0.23 µg/mL | 1500 µg/mL | 560 µg/mL | 3 µg/mL | 0.24 µg/mL | CC50 ([1]; Homo sapiens, read-out: LC50 value, Patient No. 4, with PTK787 10 nM): 10 µg/mL; CC50 ([1]; Homo sapiens, read-out: LC50 value, Patient No. 4, with PTK787 25 nM): 0.2 µg/mL
2 | O=C1c2c(O)ccc(O)c2C(=O)c2c(NCCNCCO)ccc(NCCNCCO)c21 [Mitoxantrone, mitoxantrone] | 0.23 µg/mL | 0.16 µg/mL | 0.19 µg/mL | 0.03 µg/mL | 0.0175 µg/mL | 6.1e-05 µg/mL | 0.043 µg/mL | 0.0004 µg/mL | 0.054 µg/mL | 2.3e-05 µg/mL | 0.0186 µg/mL | 6.1e-05 µg/mL | CC50 ([1]; Homo sapiens, read-out: LC50 value, Patient No. 5, with PTK787 10 nM): 8e-07 µg/mL
3 | Clc1ccc(Nc2nnc(Cc3ccncc3)c3ccccc23)cc1 [PTK787] | – | – | – | – | – | – | – | – | – | – | – | – | TF-1 cell survival (TF-1 cells [2]; 25 nM PTK787, 24 hours): 21.9%; effect of PTK787 on cell survival on addition of rec VEGF (TF-1 cells [2]; 25 and 50 nM PTK787 plus rec VEGF, TF-1 cells): can be blocked; CC50 ([1]; Patient No. 1, 72 hours, read-out: LC50 value): > 25 nM; CC50 ([1]; Patient No. 2, 72 hours, read-out: LC50 value): 7.3 nM; CC50 ([1]; Patient No. 3, 72 hours, read-out: LC50 value): 5.8 nM; CC50 ([1]; Patient No. 4, 72 hours, read-out: LC50 value): 25 nM; CC50 ([1]; Patient No. 5, 72 hours, read-out: LC50 value): 7.7 nM; CC50 ([1]; Patient No. 6, 72 hours, read-out: LC50 value): 14.5 nM; decrease in cell survival, median [3, 19]: 15%; decrease in cell survival, range over patients [3, 19]: 0%-35.5%; decrease in cell survival, range over patients ([3]; PTK787 alone (25 nM)): 28.2%-75.4%; decrease in cell survival (cell death), median ([3]; PTK787 alone (25 nM), patient samples, p-value 0.043): 55.1%; leukemic cell survival (TF-1 cells [4]): up to 10%; leukemic cell survival (HL-60 cells): up to 1%; apoptosis (fraction of apoptotic cells) (TF-1 cells [5]): up to 12%; leukemic cell survival (K562 cells): no decrease at all; growth of human carcinomas transplanted orthotopically into mice [6]: inhibits the growth; vessel density in the tumor tissues [6]: does reduce vessel density
